Article PMC10772524 (Haematologica, 2023)

Columns and labels:
[1] = test system: patients with relapsed/refractory T-cell lymphoma; experiment: Safety and tolerability of tenalisib plus romidepsin; type: in vivo, human; conditions: for Patients with three or more drug interruptions: during the combination treatment; for Patients with drug interruptions / Patients with dose reductions: overall, during combination treatment; for Patients with drug interruptions: PTCL and CTCL groups
[2] = test system: peripheral T-cell lymphoma (PTCL); conditions: PTCL patients; cited from earlier work
patients = conditions: cited from earlier work
[3] = Plasma pharmacokinetics of tenalisib, IN0385 and romidepsin; type: in vivo, human; conditions: oral, all three cohorts
CYP3A4 = conditions: also substrates for CYP3A4; ref not given; cited from earlier work

Structure (SMILES) | Patients with three or more drug interruptions [1] | MTD/RP2D dose (recommended dose for dose expansion) in the combination ([1]; intravenous, days 1, 8, 15 of 28-day cycle, with tenalisib) | Patients with drug interruptions [1] | Patients with dose reductions [1] | CR rate with monotherapy [2] | Discontinuation rates due to adverse events, single agent studies (patients) | Absorption [3] | CYP3A4 inhibition (CYP3A4) | MTD/RP2D dose (recommended dose for dose expansion) in the combination ([1]; orally twice daily (BID), with romidepsin)
C/C=C1\NC(=O)[C@H]2CSSCC/C=C/[C@H](CC(=O)N[C@H](C(C)C)C(=O)N2)OC(=O)[C@H](C(C)C)NC1=O [romidepsin, reference compound] | 24.2% | 14 mg/m^2 | 63.6% | 33.3% | 14% | 19-28% | – | – | –
CC[C@H](Nc1ncnc2[nH]cnc12)c1oc2ccccc2c(=O)c1-c1cccc(F)c1 [tenalisib] | 12.1% | – | 60.6% | 27.3% | 20.0% | – | rapidly absorbed | moderate inhibitors | 800 mg
